Results: patent publication US20260137706A1, “METHODS OF TREATING INFLAMMATORY DISEASES” (INTERLINE THERAPEUTICS, INC., priority 2023, published 2026)

How the values were obtained:
[1] = target: T1, GST-RIPK2 fusion protein (human RIPK2, amino acids 1-310) (Homo sapiens, UniProt O43353); experiment: RIPK2 binding competition assay (TR-FRET, Tracer 199 displacement); settings: 10 nM Tracer 199, 1 nM GST-RIPK2, read-out: RIPK2 IC50
T1 construct: made in house; host or cells: baculovirus infected Sf9 cells
Summary of the method: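 GST-RIPK2 (human aa 1-310, Sf9-expressed; final 1 nM) with Tracer 199 (final 10 nM) and Tb-anti-GST (final 0.5 nM) in Tris pH 7.5 buffer, 45 min at 22 °C. TR-FRET 665/620 nm ratio after 337 nm excitation; normalized to no-inhibitor (0%) and no-protein (−100%), giving IC50.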

[2] = system: NF-κB pathway (SEAP) in THP1-Dual cells; experiment: THP-1 Dual cell SEAP assay (L18-MDP stimulated); type: cell-based; settings: Homo sapiens, THP1-Dual, read-out: NF-κB THP1 IC50 bin
Summary of the method: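 THP1-Dual cells (~25,000/well) were preincubated 30 min with serially diluted compounds, then stimulated with 10 ng/mL L18-MDP (final) for 20-24 h at 37 °C. Supernatant SEAP was read with QUANTI-Blue at OD 620-655 nm after 2 h. IC50 came from non-linear fits of % inhibition versus DMSO/L18-MDP controls after media-blank subtraction.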

[3] = target: T2, binding of His-XIAP(BIR2)-avi fusion protein to GST-RIPK2 fusion protein (RIPK2/XIAP) (Homo sapiens, UniProt O43353); experiment: RIPK2-XIAP binding competition PPI assay (TR-FRET); settings: RIPK2/XIAP binding competition PPI assay; for Emax: Amax, read-out: PPI Amax bin; for IC50: read-out: PPI IC50 bin
T2 construct: made in house; host or cells: baculovirus infected Sf9 cells
Summary of the method: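 Compounds (in DMSO, 100-fold stock) incubated 120 min at 23 °C with 1 nM GST-RIPK2 (aa 1-310) and 25 nM His-XIAP(BIR2 aa 152-231)-avi, plus anti-His-XL665 and anti-GST-Tb, in pH 7.5 Tris buffer. Read-out: 665/520 nm emission ratio. Normalized to no-inhibitor (0%) and 50 nM GSK583 (−100%); Amax binned A–D.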

T2 sequence (O43353 1-310 limits assumed): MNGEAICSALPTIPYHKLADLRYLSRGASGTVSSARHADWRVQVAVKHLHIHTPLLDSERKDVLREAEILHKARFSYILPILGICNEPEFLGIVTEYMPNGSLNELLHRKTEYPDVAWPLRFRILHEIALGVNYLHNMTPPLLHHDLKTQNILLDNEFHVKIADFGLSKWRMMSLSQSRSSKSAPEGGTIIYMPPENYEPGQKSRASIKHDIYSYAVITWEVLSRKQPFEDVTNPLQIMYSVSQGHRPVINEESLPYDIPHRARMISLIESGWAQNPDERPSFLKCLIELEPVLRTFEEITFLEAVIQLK
T1 sequence (O43353 1-310): as the sequence (O43353 1-310 limits assumed) above

SMILES	IC50 [1] [nM]	IC50 [2] [nM]	Emax [3] [%]	IC50 [3] [nM]
C[C@H](CO)COc1cn2ncc(-c3cc(F)c(N)nc3F)c2cc1S(=O)(=O)C(C)(C)C [Example 195, (R)-3-((3-(6-amino-2,5-difluoropyridin-3-yl)-5-(tert-butylsulfonyl)pyrazolo [1,5-a]pyridin-6-yl)oxy)-2-methylpropan-1-ol]	< 1	< 50	> 80	< 1
CC(C)(C)S(=O)(=O)c1cn2c(-c3cc(F)c(N)nc3F)cnc2cc1OC[C@H]1C[C@@H](O)C1 [Example 196, (1s,3s)-3-(((3-(6-amino-2,5-difluoropyridin-3-yl)-6-(tert-butylsulfonyl)imidazo [1,2-a]pyridin-7-yl)oxy)methyl) cyclobutan-1-ol]	1 to 2.5	50 to 250	> 80	1 to 2.5
CC(C)(C)S(=O)(=O)c1cn2c(-c3cc(F)c(N)nc3F)cnc2cc1OC[C@H]1C[C@H](O)C1 [Example 197, (1r,3r)-3-(((3-(6-amino-2,5-difluoropyridin-3-yl)-6-(tert-butylsulfonyl)imidazo [1,2-a]pyridin-7-yl)oxy)methyl) cyclobutan-1-ol]	< 1	50 to 250	> 80	< 1
C[C@H](CO)COc1cc2ncc(-c3cc(Cl)c(N)nc3F)n2cc1S(=O)(=O)C(C)(C)C [Example 198, (R)-3-((3-(6-amino-5-chloro-2-fluoropyridin-3-yl)-6-(tert-butylsulfonyl)imidazo [1,2-a]pyridin-7-yl)oxy)-2-methylpropan-1-ol]	1 to 2.5	50 to 250	> 80	< 1
C[C@@H](CO)COc1cn2ncc(-c3cc(Cl)c(N)nc3F)c2cc1S(=O)(=O)C(C)(C)C [Example 199, (S)-3-((3-(6-amino-5-chloro-2-fluoropyridin-3-yl)-5-(tert-butylsulfonyl)pyrazolo [1,5-a]pyridin-6-yl)oxy)-2-methylpropan-1-ol]	< 1	50 to 250	> 80	< 1
C[C@H](CO)COc1cn2ncc(-c3cc(Cl)c(N)nc3F)c2cc1S(=O)(=O)C(C)(C)C [Example 200, (R)-3-((3-(6-amino-5-chloro-2-fluoropyridin-3-yl)-5-(tert-butylsulfonyl)pyrazolo [1,5-a]pyridin-6-yl)oxy)-2-methylpropan-1-ol]	< 1	< 50	> 80	< 1
C[C@@H](CO)COc1cc2ncc(-c3cc(Cl)c(N)nc3F)n2cc1S(=O)(=O)C(C)(C)C [Example 201, (S)-3-((3-(6-amino-5-chloro-2-fluoropyridin-3-yl)-6-(tert-butylsulfonyl)imidazo [1,2-a]pyridin-7-yl)oxy)-2-methylpropan-1-ol]	1 to 2.5	50 to 250	> 80	1 to 2.5
CC(C)(C)S(=O)(=O)c1cn2c(-c3cc(F)c(N)nc3F)cnc2cc1OCC(F)(F)CN [Example 202, 5-(7-(3-amino-2,2-difluoropropoxy)-6-(tert-butylsulfonyl)imidazo [1,2-a]pyridin-3-yl)-3,6-difluoropyridin-2-amine]	1 to 2.5	50 to 250	> 80	1 to 2.5
CC(C)(C)S(=O)(=O)c1cn2c(-c3cc(F)c(N)nc3F)cnc2cc1OCC(F)CO (centres unmarked) [Example 203, 3-((3-(6-amino-2,5-difluoropyridin-3-yl)-6-(tert-butylsulfonyl)imidazo [1,2-a]pyridin-7-yl)oxy)-2-fluoropropan-1-ol]	1 to 2.5	50 to 250	> 80	1 to 2.5
CC(F)(CO)COc1cc2ncc(-c3cc(F)c(N)nc3F)n2cc1S(=O)(=O)C(C)(C)C (centres unmarked) [Example 204, 3-((3-(6-amino-2,5-difluoropyridin-3-yl)-6-(tert-butylsulfonyl)imidazo [1,2-a]pyridin-7-yl)oxy)-2-fluoro-2-methylpropan-1-ol]	1 to 2.5	50 to 250	> 80	1 to 2.5
CCCS(=O)(=O)Nc1cc(-c2cnc3cc(OC)c(C(=O)N(C)C(C)C)cn23)cc(F)c1OC [Example 205, 3-(3-fluoro-4-methoxy-5-(propylsulfonamido)phenyl)-N-isopropyl-7-methoxy-N-methylimidazo[1,2-a]pyridine-6-carboxamide]	> 20	> 1000	55 to 80	> 20
CC(C)(C)S(=O)(=O)c1cn2c(-c3ccc4[nH]ccc4c3)cnc2cc1OCCO [Example 206, 2-((6-(tert-butylsulfonyl)-3-(1H-indol-5-yl)imidazo[1,2-a]pyridin-7-yl)oxy)ethan-1-ol]	1 to 2.5	50 to 250	55 to 80	< 1
CC(C)(C)S(=O)(=O)c1cn2c(-c3ccc4[nH]cnc4c3)cnc2cc1OCCO [Example 207, 2-((3-(1H-benzo[d]imidazol-5-yl)-6-(tert-butylsulfonyl)imidazo [1,2-a]pyridin-7-yl)oxy)ethan-1-ol]	2.5 to 20	> 1000	< 30	> 20
CC(C)(C)S(=O)(=O)c1cn2c(-c3ccc4nccn4c3)cnc2cc1OCCO [Example 208, 2-((6-(tert-butylsulfonyl)-[3,6′-biimidazo[1,2-a]pyridin] -7-yl)oxy)ethan-1-ol]	2.5 to 20	> 1000	< 30	> 20
CC(C)(C)S(=O)(=O)c1cn2c(-c3ccc4ccnn4c3)cnc2cc1OCCO [Example 209, 2-((6-(tert-butylsulfonyl)-3-(pyrazolo[1,5-a]pyridin-6-yl)imidazo[1,2-a]pyridin-7-yl)oxy)ethan-1-ol]	> 20	> 1000	30 to 55	> 20
CC(C)(C)S(=O)(=O)c1cn2c(-c3cnc4cn[nH]c4c3)cnc2cc1OCCO [Example 210, 2-((6-(tert-butylsulfonyl)-3-(1H-pyrazolo[4,3-b]pyridin-6-yl)imidazo[1,2-a]pyridin-7-yl)oxy)ethan-1-ol]	> 20	> 1000	< 30	> 20
COc1cn2ncc(-c3cc(F)c(OC)c(NS(=O)(=O)c4cnn(C)c4)c3)c2nc1OC [Example 211, N-(5-(5,6-dimethoxypyrazolo[1,5-a]pyrimidin-3-yl)-3-fluoro-2-methoxyphenyl)-1-methyl-1H-pyrazole-4-sulfonamide]	2.5 to 20	> 1000	> 80	2.5 to 20
C[C@@H](O)COc1cc2ncc(-c3cc(Cl)c(N)nc3F)n2cc1S(=O)(=O)C(C)(C)C [Example 212, (R)-1-((3-(6-amino-5-chloro-2-fluoropyridin-3-yl)-6-(tert-butylsulfonyl)imidazo [1,2-a]pyridin-7-yl)oxy)propan-2-ol]	1 to 2.5	50 to 250	> 80	1 to 2.5
COc1cc2ncc(-c3cc(F)c(N)nc3F)n2cc1C1CCCN(C)C1=O (centres unmarked) [Example 213, 3-(3-(6-amino-2,5-difluoropyridin-3-yl)-7-methoxyimidazo[1,2-a]pyridin-6-yl)-1-methylpiperidin-2-one]	> 20	> 1000	55 to 80	> 20
COc1cc2ncc(-c3cc(F)c(OC)c(NS(=O)(=O)c4cnn(C)c4)c3)n2cc1S(C)(=O)=O [Example 214, N-(3-fluoro-2-methoxy-5-(7-methoxy-6-(methylsulfonyl)imidazo[1,2-a]pyridin-3-yl)phenyl)-1-methyl-1H-pyrazole-4-sulfonamide]	< 1	50 to 250	> 80	< 1
CC(C)(C)S(=O)(=O)c1cc2c(-c3cc4cc[nH]c4nc3F)cnn2cc1OCCO [Example 215, 2-((5-(tert-butylsulfonyl)-3-(6-fluoro-1H-pyrrolo[2,3-b]pyridin-5-yl)pyrazolo[1,5-a]pyridin-6-yl)oxy)ethan-1-ol]	< 1	< 50	> 80	< 1
COc1cc2ncc(-c3cc4cc[nH]c4nc3F)n2cc1S(=O)(=O)C(C)(C)C [Example 216, 6-(tert-butylsulfonyl)-3-(6-fluoro-1H-pyrrolo[2,3-b]pyridin-5-yl)-7-methoxyimidazo[1,2-a]pyridine]	< 1	< 50	> 80	< 1
CC(C)(C)S(=O)(=O)c1cn2c(-c3cc4cc[nH]c4cc3F)cnc2cc1OCCO [Example 217, 2-((6-(tert-butylsulfonyl)-3-(6-fluoro-1H-indol-5-yl)imidazo[1,2-a]pyridin-7-yl)oxy)ethan-1-ol]	< 1	50 to 250	55 to 80	< 1
